Patent publication US11739083B2, “Disposable sensor chip with reagent including 2-substituted benzothiazolyl-3-substituted phenyl-5-substituted sulfonated phenyl-2H-tetrazolium salt” (TERUMO KABUSHIKI KAISHA, priority 2016, dated 2023)
Converted amounts (≈) assume the structure as drawn.

What was measured:
[1] = Maximum absorption wavelength (λmax) of formazan-nickel chelate by spectrophotometer; assay type: physicochemical; settings: chelate of formazan and nickel ion, aqueous MOPS, cell length 10 mm, n=1
Experimental: 10 mM aqueous solution of MOPS was added to each of the formazan compounds so as to obtain a final concentration of […], and thereby 100 μL of a sample was produced. At this time, all of the samples were red-brown in color. Apart from this, a 1 M aqueous solution of nickel ion was produced.
For mixed solutions of various compounds in an aqueous solution of formazan and an aqueous solution of nickel, the spectra were measured with a spectrophotometer (measurement cell length: 10 mm) (n=1). Based on each of the spectra, the maximum absorption wavelength (λmax) (nm) of each of the compounds in formazan was determined. From FIG. 1, it is understood that the maximum absorption wavelength (λmax) of the chelate compound of formazan compound 1 and nickel ion is 630 nm.
The absorbance at the maximum absorption wavelength is denoted as 100%.

[2] = Evaluation of sensitivity (colour development with glucose, GDH-FAD, m-PMS, nickel; gradient versus WST-4); settings: gradientsample/gradientWST-4; for Sensitivity, comparison with Comparative Example 5 (rating): absorbance at λmax versus glucose concentration, cell length 50 μm
Experimental: Separately, 100 μL of RO water was added to 7 mg of a glucose dehydrogenase that uses flavin adenine dinucleotide (FAD) as a coenzyme (GDH-FAD) (manufactured by TOYOBO CO., LTD., product No.: GLD-351), the enzyme was dissolved, and thus a GDH solution was produced. Furthermore, 200 μL of RO water was added to 3.5 mg of 1-methoxy-5-methylphenazium methyl sulfate (m-PMS) (manufactured by DOJINDO LABORATORIES), and the compound was dissolved therein. Thus, an s-PMS solution was produced. 1 mL of RO water was added to 129 mg of nickel chloride to dissolve the salt, and thus a nickel solution was produced.
40 μL of the reaction solution was added to 10 μL each of an aqueous glucose solution at a concentration of 125 mg/dL, an aqueous glucose solution at a concentration of 250 mg/dL, and an aqueous glucose solution at a concentration of 1,000 mg/dL, and the mixtures were allowed to develop color. The spectra were measured with a spectrophotometer (measurement cell length: 50 μm) (n=1). […] Thus, the gradient (gradientsample) was determined.
40 μL of the control reaction solution was added to 10 μL each of an aqueous glucose solution at a concentration of 125 mg/dL, an aqueous glucose solution at a concentration of 250 mg/dL, and an aqueous glucose solution at a concentration of 1,000 mg/dL, and the mixtures were allowed to develop color. The spectra were measured with a spectrophotometer (measurement cell length: 50 μm) (n=1). For each of the spectra, the absorbance at 650 nm, which is the measurement wavelength (λmax) of WST-4, was measured, and the glucose concentration in the colored solution and the absorbance were plotted on the horizontal axis and the vertical axis, respectively. Thus, the gradient (gradientWST-4) was determined.
FIG. 2 is a graph showing the relationship between the glucose concentration and the absorbance of produced formazan in relation to the tetrazolium compound 1 and WST-4. […] Meanwhile, the gradient serves as an index for the color development intensity of each compound. Therefore, when the value obtained by dividing the gradientsample by the gradientWST-4 (gradientsample/gradientWST-4) is greater than one-fold, it is implied that the intensity of color development on the longer wavelength side is higher compared to WST-4, which is a well-known indicator reagent.

[3] = Evaluation of water-solubility (visual check for precipitate); assay type: physicochemical; settings: RO water / 0.5 M MOPS solution (1:1), aqueous buffer, thermodynamic from solid; RO water and 0.5 M MOPS pH 7.2; 200, 100, 20 mM; stirred 5 minutes
Experimental: After the mixture was stirred for 5 minutes, a precipitate was checked by visual inspection. […] After the mixture was stirred for 5 minutes, a precipitate was checked by visual inspection. […] After the mixture was stirred for 5 minutes, a precipitate was checked by visual inspection.

SMILES	Maximum absorption wavelength (λmax) [1] [nm]	Sensitivity, comparison with Comparative Example 5 (rating) [2]	solubility at 5 min [3] [mM]	Sensitivity, comparison with Comparative Example 5 (ratio) [2] [times]
COc1ccc2nc(-n3nc(-c4ccc(S(=O)(=O)O)cc4S(=O)(=O)[O-])n[n+]3-c3cc(S(=O)(=O)O)ccc3OC)sc2c1 [Example 2]	600	⊙ (gradientsample/gradientWST-4) was 2 or greater)	> 200	
COc1ccc2nc(-n3nc(-c4cc(S(=O)(=O)[O-])cc(S(=O)(=O)O)c4)n[n+]3-c3cc(C(=O)O)ccc3OC)sc2c1 [Example 11]	605	◯ (the value of the ratio gradientsample/gradientWST-4 was 1.5 or greater and less than 2)	> 200	
COc1ccc(S(=O)(=O)O)cc1-[n+]1nc(-c2ccc(S(=O)(=O)O)cc2S(=O)(=O)[O-])nn1-c1nc2cc3c(cc2s1)OCO3 [Example 13]	625	⊙ (gradientsample/gradientWST-4) was 2 or greater)	> 200	2.4
COc1ccc2nc(-n3nc(-c4ccc(S(=O)(=O)[O-])cc4S(=O)(=O)[O-])n[n+]3-c3ccc([N+](=O)[O-])cc3OC)sc2c1.[Na+] [Example 4]	650	⊙ (gradientsample/gradientWST-4) was 2 or greater)	20 to 100	
COc1ccc(-[n+]2nc(-c3ccc(S(=O)(=O)O)cc3S(=O)(=O)O)nn2-c2nc3cc4c(cc3s2)OCO4)cc1S(=O)(=O)[O-] [Example 17]	650	⊙ (gradientsample/gradientWST-4) was 2 or greater)	> 200	2.4
COc1ccc(S(=O)(=O)O)cc1-[n+]1nc(-c2ccc(S(=O)(=O)O)cc2S(=O)(=O)[O-])nn1-c1nc2cc3c(cc2s1)OCCO3 [Example 14]	610	⊙ (gradientsample/gradientWST-4) was 2 or greater)	> 200	2.4
COc1ccc2nc(-n3nc(-c4ccc(S(=O)(=O)O)cc4S(=O)(=O)O)n[n+]3-c3cc(S(=O)(=O)[O-])c([N+](=O)[O-])cc3OC)sc2c1 [Example 3]	630	◯ (the value of the ratio gradientsample/gradientWST-4 was 1.5 or greater and less than 2)	> 200	
COc1ccc2nc(-n3nc(-c4ccc(O)cc4S(=O)(=O)[O-])n[n+]3-c3cc(S(=O)(=O)[O-])ccc3OC)sc2c1.[Na+] [Example 5]	630	◯ (the value of the ratio gradientsample/gradientWST-4 was 1.5 or greater and less than 2)	100 to 200	
COc1ccc2nc(-n3nc(-c4ccccc4S(=O)(=O)[O-])n[n+]3-c3ccc(S(=O)(=O)[O-])cc3)sc2c1.[Na+] [Example 7]	645	⊙ (gradientsample/gradientWST-4) was 2 or greater)	100 to 200	
COc1ccc(-[n+]2nc(-c3ccc(S(=O)(=O)O)cc3S(=O)(=O)O)nn2-c2nc3cc4c(cc3s2)OCCO4)cc1S(=O)(=O)[O-] [Example 19]	640	⊙ (gradientsample/gradientWST-4) was 2 or greater)	> 200	2.4
COc1ccc2nc(-n3nc(-c4ccc(S(=O)(=O)O)cc4S(=O)(=O)[O-])n[n+]3-c3ccc(C(=O)O)cc3OC)sc2c1 [Example 10]	620	◯ (the value of the ratio gradientsample/gradientWST-4 was 1.5 or greater and less than 2)	> 200	
COc1ccc2nc(-n3nc(-c4ccc(O)c(S(=O)(=O)[O-])c4)n[n+]3-c3cc(S(=O)(=O)[O-])ccc3OC)sc2c1.[Na+] [Example 6]	650	⊙ (gradientsample/gradientWST-4) was 2 or greater)	20 to 100	
COc1ccc2nc(-n3nc(-c4ccc(S(=O)(=O)O)cc4S(=O)(=O)[O-])n[n+]3-c3ccc(OC)c(C(=O)O)c3)sc2c1 [Example 12]	630	⊙ (gradientsample/gradientWST-4) was 2 or greater)	> 200	2.4
COc1ccc(S(=O)(=O)O)cc1-[n+]1nc(-c2ccc(S(=O)(=O)O)cc2S(=O)(=O)[O-])nn1-c1nc2ccccc2s1 [Comparative Example 1, reference compound]	580	Δ (the value of the ratio gradientsample/gradientWST-4 was greater than 1 and less than 1.5)	100 to 200 (≈ 62.6 to 125 mg/mL)	
CCOc1ccc2nc(-n3nc(-c4ccc(S(=O)(=O)O)cc4S(=O)(=O)O)n[n+]3-c3ccc(OC)c(S(=O)(=O)[O-])c3)sc2c1 [Example 20]	630	⊙ (gradientsample/gradientWST-4) was 2 or greater)	> 200	2.4
COc1ccccc1-[n+]1nc(-c2ccc(S(=O)(=O)O)cc2S(=O)(=O)[O-])nn1-c1nc2ccccc2s1 [compound 4, reference compound]	580	⊙ (gradientsample/gradientWST-4) was 2 or greater)	100 to 200 (≈ 54.6 to 109 mg/mL)	
COc1ccc2nc(-n3nc(-c4cc(S(=O)(=O)[O-])cc(S(=O)(=O)O)c4)n[n+]3-c3cc(S(=O)(=O)O)ccc3OC)sc2c1 [Example 8]	620	◯ (the value of the ratio gradientsample/gradientWST-4 was 1.5 or greater and less than 2)	> 200	
COc1ccc2nc(-n3nc(-c4cc(S(=O)(=O)O)cc(S(=O)(=O)O)c4)n[n+]3-c3ccc(OC)c(S(=O)(=O)[O-])c3)sc2c1 [Example 9]	640	◯ (the value of the ratio gradientsample/gradientWST-4 was 1.5 or greater and less than 2)	> 200	
